In the supplement of paper PMC10307832:

Columns and labels:
Test in all cases: relative viability (nuclei count vs DMSO), 5 days (fraction); higher = more cells survive
[1] = compound: O=C(O)c1ccc2c(c1)nc(Nc1cccc(Cl)c1)c1ccncc12 [Silmitasertib] + Cc1nc(NC(=O)N2CCC[C@H]2C(N)=O)sc1-c1ccnc(C(C)(C)C(F)(F)F)c1 [Alpelisib] (partner 2 µM)
In short: (§1)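 Relative viability divides the nuclei count in treated wells by that in vehicle wells. Lung cancer cell lines were seeded in 1536-well plates, dosed by pin tool the next day, and fixed and stained after 5 days in one step with final 0.05% Triton X-100, 1% formaldehyde and 1 ug/ml Hoechst. Dosing was a single drug or a fixed anchor-drug dose plus five library-drug doses (not always all listed) in √10 steps, and values are medians of duplicate plates imaged at 4×.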

[2] = compound: O=C(O)c1ccc2c(c1)nc(Nc1cccc(Cl)c1)c1ccncc12 [Silmitasertib] + CS(=O)(=O)CCNCc1ccc(-c2ccc3ncnc(Nc4ccc(OCc5cccc(F)c5)c(Cl)c4)c3c2)o1 [Lapatinib] (partner 2 µM)
In short: as §1

[3] = compound: O=C(O)c1ccc2c(c1)nc(Nc1cccc(Cl)c1)c1ccncc12 [Silmitasertib] + N=C(N)NC(=N)NCCc1ccccc1 [Phenformin] (partner 250 µM)
In short: as §1

Silmitasertib + AZD7762 = compound: O=C(O)c1ccc2c(c1)nc(Nc1cccc(Cl)c1)c1ccncc12 [Silmitasertib] + NC(=O)Nc1cc(-c2cccc(F)c2)sc1C(=O)N[C@H]1CCCNC1 [AZD7762] (partner 0.2 µM)
In short: as §1

[4] = compound: O=C(O)c1ccc2c(c1)nc(Nc1cccc(Cl)c1)c1ccncc12 [Silmitasertib] + Cc1nc(Nc2ncc(C(=O)Nc3c(C)cccc3Cl)s2)cc(N2CCN(CCO)CC2)n1 [Dasatinib] (partner 0.075 µM)
In short: as §1

Cell Line | relative viability ([1]; first compound 0.04 µM) | relative viability ([1]; first compound 0.4 µM) | relative viability ([1]; first compound 1.265 µM) | relative viability ([1]; first compound 4 µM) | relative viability ([2]; first compound 0.04 µM) | relative viability ([2]; first compound 0.4 µM) | relative viability ([2]; first compound 1.265 µM) | relative viability ([2]; first compound 4 µM) | relative viability ([3]; first compound 0.04 µM) | relative viability ([3]; first compound 0.4 µM) | relative viability ([3]; first compound 1.265 µM) | relative viability ([3]; first compound 4 µM) | relative viability (Silmitasertib + AZD7762; first compound 0.04 µM) | relative viability (Silmitasertib + AZD7762; first compound 0.4 µM) | relative viability (Silmitasertib + AZD7762; first compound 1.265 µM) | relative viability (Silmitasertib + AZD7762; first compound 4 µM) | relative viability ([4]; first compound 0.04 µM) | relative viability ([4]; first compound 0.4 µM) | relative viability ([4]; first compound 1.265 µM) | relative viability ([4]; first compound 4 µM)
NCI-H1755 | 0.981 | 0.912 | 0.908 | 0.987 | 1.03 | 0.979 | 1.07 | 1.16 | 0.643 | 0.601 | 0.637 | 0.586 | 0.407 | 0.479 | 0.528 | 0.494 | 0.382 | 0.419 | 0.408 | 0.363
NCI-H1792 | 0.671 | 0.595 | 0.683 | 0.727 | 0.886 | 0.711 | 0.874 | 0.608 | 0.29 | 0.24 | 0.327 | 0.103 | 0.737 | 0.56 | 0.59 | 0.444 | 0.869 | 0.806 | 0.824 | 0.921
NCI-H1793 | 0.694 | 0.619 | 0.656 | 0.564 | 0.979 | 0.728 | 0.437 | 0.488 | 0.396 | 0.29 | 0.346 | 0.373 | 0.725 | 0.457 | 0.654 | 0.515 | 0.382 | 0.324 | 0.357 | 0.393
NCI-H1915 | 1.05 | – | 1.14 | 0.885 | 0.994 | – | 1.02 | 0.397 | 0.362 | – | 0.37 | 0.249 | 0.752 | – | 0.77 | 0.535 | 0.32 | – | 0.332 | 0.192
NCI-H1944 | 0.892 | 0.765 | 0.774 | 0.884 | 0.826 | 0.807 | 0.822 | 0.816 | 0.21 | 0.211 | 0.22 | 0.186 | 0.591 | 0.399 | 0.547 | 0.528 | 0.229 | 0.235 | 0.227 | 0.224
NCI-H1975 | 0.683 | 0.532 | 0.589 | 0.468 | 0.901 | 0.731 | 0.719 | 0.739 | 0.443 | – | 0.382 | 0.394 | 0.775 | – | 0.647 | 0.795 | 0.401 | – | 0.324 | 0.432
NCI-H1993 | 0.662 | 0.602 | 0.617 | 0.688 | 0.815 | 0.753 | 0.887 | 0.803 | 0.547 | 0.447 | 0.543 | 0.566 | 0.925 | 0.653 | 0.721 | 0.663 | 0.652 | 0.502 | 0.52 | 0.586
NCI-H2085 | 1.02 | 0.806 | 0.81 | 0.878 | 0.916 | 0.509 | 0.674 | 0.507 | 0.761 | – | 0.675 | 0.597 | 0.974 | 0.702 | 0.86 | 0.858 | 0.253 | 0.233 | 0.245 | 0.265
NCI-H2087 | 1.08 | 0.811 | 0.76 | 0.386 | 0.924 | 0.753 | 0.727 | 0.377 | 0.515 | – | 0.431 | 0.223 | 1.34 | 1.1 | 1.35 | 0.817 | 0.828 | – | 0.695 | 0.308
NCI-H2126 | 0.72 | 0.667 | 0.727 | 0.704 | 0.803 | 0.759 | 0.691 | 0.544 | 0.494 | 0.515 | 0.494 | 0.462 | 1.05 | 0.836 | 1.09 | 0.934 | 0.602 | 0.584 | 0.573 | 0.539
NCI-H2170 | 0.805 | 0.648 | 0.697 | 0.771 | 0.292 | 0.258 | 0.276 | 0.274 | 0.408 | 0.34 | 0.406 | 0.421 | 0.89 | 0.554 | 0.836 | 0.968 | 0.61 | 0.502 | 0.676 | 0.598
NCI-H2347 | 1.07 | 0.854 | 0.93 | 0.904 | 0.944 | 0.77 | 0.759 | 0.508 | 1.22 | – | 0.452 | 0.301 | 0.656 | 0.663 | 0.531 | 0.633 | 0.581 | – | 0.313 | 0.254
NCI-H2405 | 0.935 | 0.688 | 0.639 | 0.775 | 1.51 | 0.903 | 0.844 | 0.562 | 0.435 | 0.34 | 0.34 | 0.301 | 0.803 | 0.754 | 0.617 | 0.634 | 0.221 | 0.209 | 0.222 | 0.236
NCI-H3122 | 0.784 | 0.726 | 0.902 | 0.969 | 1.07 | 0.975 | 1.07 | 1.08 | 0.416 | 0.365 | 0.433 | 0.47 | 1.04 | 0.705 | 0.99 | 0.92 | 0.807 | 0.706 | 0.84 | 0.834
PC-3 [JPC-3] | 1.02 | 0.79 | 1.01 | 1 | 0.51 | 0.417 | 0.458 | 0.303 | 0.475 | 0.398 | 0.468 | 0.424 | 0.862 | 0.723 | 0.897 | 0.75 | 1.04 | 0.628 | 1.03 | 0.899
PC-14 | 0.968 | 0.942 | 0.924 | 0.939 | 0.325 | 0.347 | 0.381 | 0.391 | 0.641 | – | 0.547 | 0.125 | 0.336 | – | 0.399 | 0.321 | 0.273 | 0.236 | 0.293 | 0.388
